# Assay results reported in article PMC2813745, “A novel inhibitor of the PI3K/Akt pathway based on the structure of inositol 1,3,4,5,6-pentakisphosphate” (British Journal of Cancer, 2010).
# Columns and labels:
# LCK = LCK (Homo sapiens, UniProt P06239); test: SelectScreen kinase profiling: LCK; assay type: biochemical; settings: [ATP] 50 µM
# Experimental: (§1) Effect of the indicated compounds on the activity of various kinases was assessed by SelectScreen Kinase Profiling Service (Invitrogen-Life Technologies, Paisley, UK). Assays were performed using 1 μM of the tested compounds and ATP concentration as indicated in the corresponding tables. In the case of […] a screen using 10 μM of the compound was also carried out, as indicated in the corresponding table.
# PRKCE (PKCε) = PRKCE (PKCε) (Homo sapiens, UniProt Q02156); test: SelectScreen kinase profiling: PRKCE; assay type: biochemical; settings: [ATP] 25 µM
# Experimental: as §1
# PIK3CG (p110γ) = PIK3CG (p110γ) (Homo sapiens, UniProt P48736); test: SelectScreen kinase profiling: PIK3CG; assay type: biochemical; settings: [ATP] 25 µM
# Experimental: as §1
# AURKA (Aurora A) = AURKA (Aurora A) (Homo sapiens, UniProt O14965); test: SelectScreen kinase profiling: AURKA; assay type: biochemical; settings: 1 µM compound; [ATP] 10 µM
# Experimental: as §1
# CSNK1A1 (CK1α1) = CSNK1A1 (CK1α1) (Homo sapiens, UniProt P48729); test: SelectScreen kinase profiling: CSNK1A1; assay type: biochemical; settings: [ATP] 5 µM
# Experimental: as §1
# CLK1 = CLK1 (Homo sapiens, UniProt P49759); test: SelectScreen kinase profiling: CLK1; assay type: biochemical; settings: [ATP] 25 µM
# Experimental: as §1
# AKT3 (PKBγ) = AKT3 (PKBγ) (Homo sapiens, UniProt Q9Y243); test: SelectScreen kinase profiling: AKT3; assay type: biochemical; settings: [ATP] 100 µM
# Experimental: as §1
# RPS6KA1 (RSK1) = RPS6KA1 (RSK1) (Homo sapiens, UniProt Q15418); test: SelectScreen kinase profiling: RPS6KA1; assay type: biochemical; settings: [ATP] 5 µM
# Experimental: as §1
# MAP2K1 (MEK1) = MAP2K1 (MEK1) (Homo sapiens, UniProt Q02750); test: SelectScreen kinase profiling: MAP2K1; assay type: biochemical; settings: [ATP] 100 µM
# Experimental: as §1
# MAPK1 (ERK2) = MAPK1 (ERK2) (Homo sapiens, UniProt P28482); test: SelectScreen kinase profiling: MAPK1; assay type: biochemical; settings: [ATP] 100 µM
# Experimental: as §1
# PRKCZ (PKCζ) = PRKCZ (PKCζ) (Homo sapiens, UniProt Q05513); test: SelectScreen kinase profiling: PRKCZ; assay type: biochemical; settings: [ATP] 5 µM
# Experimental: as §1
# BRAF = BRAF (Homo sapiens, UniProt P15056); test: SelectScreen kinase profiling: BRAF; assay type: biochemical; settings: [ATP] 100 µM
# Experimental: as §1
# PRKCA (PKCα) = PRKCA (PKCα) (Homo sapiens, UniProt P17252); test: SelectScreen kinase profiling: PRKCA; assay type: biochemical; settings: [ATP] 25 µM
# Experimental: as §1
# PRKCD (PKCδ) = PRKCD (PKCδ) (Homo sapiens, UniProt Q05655); test: SelectScreen kinase profiling: PRKCD; assay type: biochemical; settings: [ATP] 25 µM
# Experimental: as §1
# IKBKB (IKKβ) = IKBKB (IKKβ) (Homo sapiens, UniProt O14920); test: SelectScreen kinase profiling: IKBKB; assay type: biochemical; settings: 1 µM compound; [ATP] 5 µM
# Experimental: as §1
# RAF1 (cRAF) Y340D Y341D = RAF1 (cRAF) Y340D Y341D (Homo sapiens, UniProt P04049, Y340D/Y341D); test: SelectScreen kinase profiling: RAF1; assay type: biochemical; settings: [ATP] 100 µM
# Experimental: as §1
# AKT2 (PKBβ) = AKT2 (PKBβ) (Homo sapiens, UniProt P31751); test: SelectScreen kinase profiling: AKT2; assay type: biochemical; settings: for IC50: 10-point titration, [ATP] 200 μM
# Experimental: as §1
# SRC = SRC (Homo sapiens, UniProt P12931); test: SelectScreen kinase profiling: SRC; assay type: biochemical; settings: [ATP] 50 µM
# Experimental: as §1
# MAPK8 (JNK1) = MAPK8 (JNK1) (Homo sapiens, UniProt P45983); test: SelectScreen kinase profiling: MAPK8; assay type: biochemical; settings: [ATP] 100 µM
# Experimental: as §1
# CDK5/p25 = CDK5/p25 (Homo sapiens, UniProt Q00535); test: SelectScreen kinase profiling: CDK5/p25; assay type: biochemical; settings: [ATP] 10 µM
# Experimental: as §1
# PAK6 = PAK6 (Homo sapiens, UniProt Q9NQU5); test: SelectScreen kinase profiling: PAK6; assay type: biochemical; settings: [ATP] 10 µM
# Experimental: as §1
# RPS6KB1 (p70S6K) = RPS6KB1 (p70S6K) (Homo sapiens, UniProt P23443); test: SelectScreen kinase profiling: RPS6KB1; assay type: biochemical; settings: [ATP] 10 µM
# Experimental: as §1
# MAP2K2 (MEK2) = MAP2K2 (MEK2) (Homo sapiens, UniProt P36507); test: SelectScreen kinase profiling: MAP2K2; assay type: biochemical; settings: [ATP] 100 µM
# Experimental: as §1
# MAPKAPK2 = MAPKAPK2 (Homo sapiens, UniProt P49137); test: SelectScreen kinase profiling: MAPKAPK2; assay type: biochemical; settings: 1 µM compound; [ATP] 5 µM
# Experimental: as §1
# GSK3A (GSK3α) = GSK3A (GSK3α) (Homo sapiens, UniProt P49840); test: SelectScreen kinase profiling: GSK3A; assay type: biochemical; settings: [ATP] 10 µM
# Experimental: as §1
# [1] = biological target: PIK3CA/PIK3R1(p110α/p85α) (Homo sapiens, UniProt P42336); test: SelectScreen kinase profiling: PIK3CA/PIK3R1; assay type: biochemical; settings: [ATP] 25 µM
# Experimental: as §1
# Toxicity in mice = assay type: in vivo, nude CD-1 mice; settings: for body weight of the treated animals / toxicity: 12.5, 25, 50 mg kg^−1 day^−1 i.p., 14 consecutive days; for toxic effect: single dose 750 mg kg^−1 i.p.
# Experimental: Each group consisted of 2–3 mice. Body weight, deaths and any other sign of toxicity and changes in behaviour (such as motility, eating and drinking habits) were recorded.
# Exponentially growing PC3 cells were harvested, washed twice and resuspended in PBS at a concentration of 2.5 × 10^7 cells ml^−1. A suspension of 5 × 10^6 PC3 cells was injected subcutaneously (s.c.) into the left flank of the recipient mice. When tumours reached a size of ∼70 mm^3 (approximately 15 days after tumour cell implant), mice were divided into seven groups (n=7). […] Control mice were treated with water in an equal volume. The diameters of s.c. growing tumours were measured with a caliper twice a week and the experiment was ended at day 28 after the implantation.
# The inositol compounds (12.5–25–50 mg kg^−1 day^−1) and vehicle (water) were given daily by intraperitoneal (i.p.) injections for 14 consecutive days (days 15–28). Tumour size was assessed twice weekly. (A, B) Tumour growth in 2-O-Bn-InsP5-treated mice (A) and InsP5-treated mice (B) compared with control group measured for the duration of the experiment. Results are expressed as mean±s.e. (C) Top: Table showing all P-values for the indicated doses of 2-O-Bn-InsP5 compared to controls at the indicated days of treatment (NS=not significant). Bottom: In vivo anti-tumour activity parameters. The percentage of tumour weight inhibition (TWI%), the tumour growth delay (T−C) and the log cell kill (LCK) were calculated as described in the MATERIALS AND METHODS section. The highest inhibition of tumour volume is reported. […] Tumours were excised 24 h after treatment. Phosphorylation of Akt at its residues Ser473 and Thr308 was assessed by using specific antibodies. Membranes were then stripped and re-probed with an anti-Akt antibody.
# Chain of AKT2 (PKBβ) (P31751 whole entry): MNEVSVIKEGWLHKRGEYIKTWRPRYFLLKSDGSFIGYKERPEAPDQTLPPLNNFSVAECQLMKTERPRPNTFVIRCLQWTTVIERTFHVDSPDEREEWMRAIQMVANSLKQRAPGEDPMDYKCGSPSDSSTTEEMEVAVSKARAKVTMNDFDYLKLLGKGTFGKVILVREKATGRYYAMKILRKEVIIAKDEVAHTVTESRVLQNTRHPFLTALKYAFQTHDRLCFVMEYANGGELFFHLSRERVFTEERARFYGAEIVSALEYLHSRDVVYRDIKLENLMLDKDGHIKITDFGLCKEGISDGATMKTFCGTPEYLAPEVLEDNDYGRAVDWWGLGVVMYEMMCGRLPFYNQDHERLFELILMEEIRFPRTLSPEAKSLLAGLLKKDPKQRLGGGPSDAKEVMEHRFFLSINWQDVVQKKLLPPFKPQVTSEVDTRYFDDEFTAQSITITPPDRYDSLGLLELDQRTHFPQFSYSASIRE
# Chain of PAK6 (Q9NQU5 whole entry): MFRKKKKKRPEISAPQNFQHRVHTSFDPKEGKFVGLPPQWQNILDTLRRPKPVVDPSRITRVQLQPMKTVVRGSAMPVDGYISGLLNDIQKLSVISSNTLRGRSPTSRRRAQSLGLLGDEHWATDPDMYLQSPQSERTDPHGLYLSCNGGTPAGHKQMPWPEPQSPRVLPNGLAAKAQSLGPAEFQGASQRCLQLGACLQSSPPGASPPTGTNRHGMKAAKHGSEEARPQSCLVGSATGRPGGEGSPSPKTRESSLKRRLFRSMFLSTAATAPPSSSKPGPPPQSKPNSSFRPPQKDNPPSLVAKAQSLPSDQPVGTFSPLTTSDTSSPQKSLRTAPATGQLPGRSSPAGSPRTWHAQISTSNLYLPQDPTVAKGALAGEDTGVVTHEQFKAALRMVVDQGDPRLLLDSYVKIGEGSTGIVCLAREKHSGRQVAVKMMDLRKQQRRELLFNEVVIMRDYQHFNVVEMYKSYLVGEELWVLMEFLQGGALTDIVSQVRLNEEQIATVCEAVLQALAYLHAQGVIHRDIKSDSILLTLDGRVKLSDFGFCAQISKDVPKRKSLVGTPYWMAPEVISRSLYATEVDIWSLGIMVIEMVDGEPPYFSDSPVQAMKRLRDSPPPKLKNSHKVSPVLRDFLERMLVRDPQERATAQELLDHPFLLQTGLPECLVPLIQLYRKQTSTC
# Chain of CSNK1A1 (CK1α1) (P48729 whole entry): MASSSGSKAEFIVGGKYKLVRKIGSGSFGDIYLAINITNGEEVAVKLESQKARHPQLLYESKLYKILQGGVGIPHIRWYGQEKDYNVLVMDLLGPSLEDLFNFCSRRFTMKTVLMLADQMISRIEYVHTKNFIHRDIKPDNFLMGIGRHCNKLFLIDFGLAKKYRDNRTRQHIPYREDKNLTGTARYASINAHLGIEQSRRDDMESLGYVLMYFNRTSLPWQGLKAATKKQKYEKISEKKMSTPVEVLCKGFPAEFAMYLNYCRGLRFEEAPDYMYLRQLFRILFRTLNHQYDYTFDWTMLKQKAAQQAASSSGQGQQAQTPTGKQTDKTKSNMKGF
# Chain of RPS6KA1 (RSK1) (Q15418 whole entry): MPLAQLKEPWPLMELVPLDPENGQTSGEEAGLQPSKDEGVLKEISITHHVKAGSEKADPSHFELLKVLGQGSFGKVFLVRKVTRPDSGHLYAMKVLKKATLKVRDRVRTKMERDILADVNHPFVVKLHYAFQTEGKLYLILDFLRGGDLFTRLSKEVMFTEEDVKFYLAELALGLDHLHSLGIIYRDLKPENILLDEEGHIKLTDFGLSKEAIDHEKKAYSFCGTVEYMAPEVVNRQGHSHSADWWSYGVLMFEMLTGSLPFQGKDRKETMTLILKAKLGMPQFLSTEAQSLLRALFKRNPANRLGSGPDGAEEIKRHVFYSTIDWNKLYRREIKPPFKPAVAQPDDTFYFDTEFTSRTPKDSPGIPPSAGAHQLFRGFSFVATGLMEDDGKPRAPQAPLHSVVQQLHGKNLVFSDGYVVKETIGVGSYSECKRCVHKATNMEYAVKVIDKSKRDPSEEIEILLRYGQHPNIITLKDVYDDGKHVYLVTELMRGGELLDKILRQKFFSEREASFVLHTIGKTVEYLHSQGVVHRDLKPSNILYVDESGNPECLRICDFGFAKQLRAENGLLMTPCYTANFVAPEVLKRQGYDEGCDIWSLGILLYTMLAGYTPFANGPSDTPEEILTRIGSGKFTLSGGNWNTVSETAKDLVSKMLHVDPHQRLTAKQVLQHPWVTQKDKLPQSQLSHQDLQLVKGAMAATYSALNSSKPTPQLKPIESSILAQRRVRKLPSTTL
# Chain of CLK1 (P49759 whole entry): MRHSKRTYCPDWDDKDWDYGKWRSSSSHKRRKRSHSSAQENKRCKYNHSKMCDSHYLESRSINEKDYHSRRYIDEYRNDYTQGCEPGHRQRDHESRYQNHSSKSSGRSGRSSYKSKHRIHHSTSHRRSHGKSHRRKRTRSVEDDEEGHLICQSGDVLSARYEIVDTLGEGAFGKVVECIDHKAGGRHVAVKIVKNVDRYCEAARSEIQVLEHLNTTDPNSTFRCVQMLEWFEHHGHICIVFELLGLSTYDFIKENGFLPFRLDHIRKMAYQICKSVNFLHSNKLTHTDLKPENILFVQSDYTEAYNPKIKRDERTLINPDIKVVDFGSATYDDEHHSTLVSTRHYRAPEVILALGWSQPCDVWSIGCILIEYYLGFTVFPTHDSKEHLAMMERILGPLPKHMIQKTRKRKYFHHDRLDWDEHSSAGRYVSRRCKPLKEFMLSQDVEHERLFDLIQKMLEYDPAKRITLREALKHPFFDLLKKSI
# Chain of MAPK8 (JNK1) (P45983 whole entry): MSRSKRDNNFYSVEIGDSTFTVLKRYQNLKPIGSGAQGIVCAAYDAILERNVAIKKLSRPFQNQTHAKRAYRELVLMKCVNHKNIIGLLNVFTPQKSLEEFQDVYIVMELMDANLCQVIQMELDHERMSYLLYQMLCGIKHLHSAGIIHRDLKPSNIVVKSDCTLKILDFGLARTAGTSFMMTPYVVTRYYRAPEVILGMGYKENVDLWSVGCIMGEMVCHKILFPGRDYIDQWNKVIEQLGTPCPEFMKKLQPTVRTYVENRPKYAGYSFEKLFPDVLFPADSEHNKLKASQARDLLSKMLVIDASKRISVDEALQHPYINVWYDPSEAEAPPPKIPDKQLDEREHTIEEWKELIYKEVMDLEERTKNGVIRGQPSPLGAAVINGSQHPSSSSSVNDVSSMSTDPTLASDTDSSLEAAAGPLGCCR
# Chain of AKT3 (PKBγ) (Q9Y243 whole entry): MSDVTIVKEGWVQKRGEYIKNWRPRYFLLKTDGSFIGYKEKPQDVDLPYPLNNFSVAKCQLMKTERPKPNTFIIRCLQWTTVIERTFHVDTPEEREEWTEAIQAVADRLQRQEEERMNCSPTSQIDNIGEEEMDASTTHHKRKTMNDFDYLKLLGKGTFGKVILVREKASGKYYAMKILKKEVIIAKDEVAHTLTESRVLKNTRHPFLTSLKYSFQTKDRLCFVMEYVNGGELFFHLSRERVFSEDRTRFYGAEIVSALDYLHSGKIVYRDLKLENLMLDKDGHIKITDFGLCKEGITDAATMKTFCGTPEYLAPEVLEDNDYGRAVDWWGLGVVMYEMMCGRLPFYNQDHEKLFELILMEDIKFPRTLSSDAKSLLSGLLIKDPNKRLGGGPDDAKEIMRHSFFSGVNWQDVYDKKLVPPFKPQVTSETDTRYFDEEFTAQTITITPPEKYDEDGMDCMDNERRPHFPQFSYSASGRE
# Chain of SRC (P12931 whole entry): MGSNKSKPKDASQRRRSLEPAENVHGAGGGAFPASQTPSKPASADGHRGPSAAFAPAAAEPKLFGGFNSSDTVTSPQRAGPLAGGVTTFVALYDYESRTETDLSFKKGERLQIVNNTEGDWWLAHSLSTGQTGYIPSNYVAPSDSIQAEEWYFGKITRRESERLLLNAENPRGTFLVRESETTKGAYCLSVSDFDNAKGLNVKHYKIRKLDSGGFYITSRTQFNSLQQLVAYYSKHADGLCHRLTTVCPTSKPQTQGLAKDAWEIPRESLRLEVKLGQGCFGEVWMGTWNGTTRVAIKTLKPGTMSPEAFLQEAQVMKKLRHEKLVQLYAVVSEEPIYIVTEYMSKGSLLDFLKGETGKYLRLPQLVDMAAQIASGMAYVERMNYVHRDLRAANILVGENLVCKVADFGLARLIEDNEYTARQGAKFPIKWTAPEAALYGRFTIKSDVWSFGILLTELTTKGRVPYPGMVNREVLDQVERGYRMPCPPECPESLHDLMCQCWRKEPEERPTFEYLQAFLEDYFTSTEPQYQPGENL
smiles,measurement,setting,value
"O=P(O)(O)OC1C(OCc2ccccc2)C(OP(=O)(O)O)C(OP(=O)(O)O)C(OP(=O)(O)O)C1OP(=O)(O)O (stereo not drawn) [2-O-Bn-InsP5, 2-O-benzyl-myo-inositol 1,3,4,5,6-pentakisphosphate]",inhibition at 1 µM,LCK; 1 µM compound,7%
same,inhibition at 1 µM,PRKCE (PKCε); 1 µM compound,14%
same,inhibition at 1 µM,PIK3CG (p110γ); 1 µM compound,-41%
same,inhibition at 1 µM,AURKA (Aurora A),34%
same,inhibition at 1 µM,CSNK1A1 (CK1α1); 1 µM compound,0%
same,inhibition at 1 µM,CLK1; 1 µM compound,-4%
same,inhibition at 1 µM,AKT3 (PKBγ); 1 µM compound,10%
same,inhibition at 1 µM,RPS6KA1 (RSK1); 1 µM compound,2%
same,inhibition at 1 µM,MAP2K1 (MEK1); 1 µM compound,14%
same,inhibition at 1 µM,MAPK1 (ERK2); 1 µM compound,6%
same,inhibition at 1 µM,PRKCZ (PKCζ); 1 µM compound,10%
same,inhibition at 1 µM,BRAF; 1 µM compound,5%
same,inhibition at 1 µM,PRKCA (PKCα); 1 µM compound,21%
same,inhibition at 1 µM,PRKCD (PKCδ); 1 µM compound,9%
same,inhibition at 1 µM,IKBKB (IKKβ),13%
same,inhibition at 1 µM,RAF1 (cRAF) Y340D Y341D; 1 µM compound,5%
same,inhibition at 1 µM,"AKT2 (PKBβ); 1 µM compound, [ATP] 200 µM",16%
same,IC50,AKT2 (PKBβ),77 µM
same,inhibition at 1 µM,SRC; 1 µM compound,4%
same,inhibition at 1 µM,MAPK8 (JNK1); 1 µM compound,24%
same,inhibition at 1 µM,CDK5/p25; 1 µM compound,3%
same,inhibition at 1 µM,PAK6; 1 µM compound,9%
same,inhibition at 1 µM,RPS6KB1 (p70S6K); 1 µM compound,17%
same,inhibition at 1 µM,MAP2K2 (MEK2); 1 µM compound,8%
same,inhibition at 1 µM,MAPKAPK2,20%
same,inhibition at 1 µM,GSK3A (GSK3α); 1 µM compound,3%
same,inhibition at 1 µM,[1]; 1 µM compound,2%
same,body weight of the treated animals,Toxicity in mice,not different from the untreated mice
same,toxicity,Toxicity in mice,no evidence of toxicity
same,tolerability in vivo,Toxicity in mice; relative to the active dose,well tolerated in vivo even at concentrations 15 times higher the active dose
same,toxic effect,Toxicity in mice,did not cause any major toxic effect
"O=P(O)(O)OC1C(O)C(OP(=O)(O)O)C(OP(=O)(O)O)C(OP(=O)(O)O)C1OP(=O)(O)O (stereo not drawn) [InsP5, inositol 1,3,4,5,6-pentakisphosphate]",inhibition at 10 µM,LCK; 10 µM compound,-26%
same,inhibition at 10 µM,PRKCE (PKCε); 10 µM compound,0%
same,inhibition at 10 µM,PIK3CG (p110γ); 10 µM compound,4%
same,inhibition at 1 µM,AURKA (Aurora A),1%
same,inhibition at 10 µM,CSNK1A1 (CK1α1); 10 µM compound,13%
same,inhibition at 10 µM,CLK1; 10 µM compound,9%
same,inhibition at 10 µM,AKT3 (PKBγ); 10 µM compound,10%
same,inhibition at 10 µM,RPS6KA1 (RSK1); 10 µM compound,12%
same,inhibition at 10 µM,MAP2K1 (MEK1); 10 µM compound,7%
same,inhibition at 10 µM,MAPK1 (ERK2); 10 µM compound,8%
same,inhibition at 10 µM,PRKCZ (PKCζ); 10 µM compound,-8%
same,inhibition at 10 µM,BRAF; 10 µM compound,10%
same,inhibition at 10 µM,PRKCA (PKCα); 10 µM compound,30%
same,inhibition at 10 µM,PRKCD (PKCδ); 10 µM compound,19%
same,inhibition at 1 µM,IKBKB (IKKβ),1%
same,inhibition at 10 µM,RAF1 (cRAF) Y340D Y341D; 10 µM compound,18%
same,IC50,AKT2 (PKBβ),38.3 µM
same,inhibition at 10 µM,SRC; 10 µM compound,10%
same,inhibition at 10 µM,MAPK8 (JNK1); 10 µM compound,14%
same,inhibition at 10 µM,CDK5/p25; 10 µM compound,13%
same,inhibition at 10 µM,PAK6; 10 µM compound,20%
same,inhibition at 10 µM,RPS6KB1 (p70S6K); 10 µM compound,9%
same,inhibition at 10 µM,MAP2K2 (MEK2); 10 µM compound,3%
same,inhibition at 1 µM,MAPKAPK2,4%
same,inhibition at 10 µM,GSK3A (GSK3α); 10 µM compound,15%
same,inhibition at 10 µM,[1]; 10 µM compound,5%
same,body weight of the treated animals,Toxicity in mice,not different from the untreated mice
same,toxicity,Toxicity in mice,no evidence of toxicity
same,toxic effect,Toxicity in mice,did not cause any major toxic effect
